From BigSolDB 2.1

CC1(C)CO[P+]([O-])(Oc2c(Br)cc(Br)cc2Br)OC1
solubility (mole fraction)
Conditions | in THF | in acetone | in acetonitrile | in chloroform | in dichloromethane | in ethanol | in ethyl acetate | in methanol | in methyl acetate | in toluene
288.15 K | – | – | – | 0.0801 | 0.0492 | – | – | – | 0.0053 | –
293.15 K | 0.024 | 0.0131 | 0.00399 | 0.0844 | 0.0546 | 0.0025 | 0.00497 | 0.00195 | 0.00649 | 0.00784
298.15 K | 0.0258 | 0.0153 | 0.00504 | 0.0882 | 0.0594 | 0.00298 | 0.00564 | 0.0024 | 0.00765 | 0.009
303.15 K | 0.0303 | 0.0171 | – | 0.0947 | 0.0653 | 0.00358 | – | 0.00296 | 0.00867 | 0.0103
308.15 K | 0.0329 | 0.0194 | 0.00755 | 0.1 | 0.0712 | 0.00414 | 0.00748 | 0.00354 | 0.0107 | –
313.15 K | 0.0374 | 0.0226 | 0.00936 | 0.106 | – | 0.00465 | 0.00853 | 0.00424 | 0.0119 | 0.0145
318.15 K | 0.0409 | 0.0254 | – | 0.113 | – | 0.00556 | 0.00951 | – | 0.0138 | –
323.15 K | 0.0448 | 0.0295 | 0.0128 | – | – | 0.00643 | 0.0111 | 0.00614 | 0.0163 | 0.0195
328.15 K | – | – | – | 0.124 | – | – | 0.0127 | – | – | –
333.15 K | – | – | 0.0184 | – | – | 0.00795 | 0.0143 | 0.0081 | – | 0.0268
343.15 K | – | – | 0.0265 | – | – | – | – | – | – | 0.0349
